Where two headings read alike, the source gives them in different places.
Assays:
P. fal = P. fal assay of Table 13 (strain not given); type: cell-based, P. falciparum; settings: Plasmodium falciparum
HepG2 cells = test: HepG2 cell toxicity (MTT) assay; type: cell-based; settings: Table 13; read-out: HepG2 TC50
[1] = test system: T. brucei brucei Lister 427; test: Trypanosome replication assay; type: cell-based, Trypanosoma brucei brucei; settings: Trypanosoma brucei, 48 h, 48 h, values ±7%
L. major promastigote = L. major promastigote assay; type: cell-based; settings: Leishmania major
T. cruzi = T. cruzi growth inhibition; type: cell-based, Trypanosoma cruzi; settings: Trypanosoma cruzi
L. major amastigote = L. major amastigote assay; type: cell-based; settings: Leishmania major
[2] = concentration giving 50% inhibition of growth of T brucei brucei Lister 427 cells, read-out: Tbb EC50
[3] = read-out: Tbb EC50, concentration giving 50% inhibition of growth of T brucei brucei Lister 427 cells

Row | SMILES | EC50 (P. fal) | CC50 (HepG2 cells) | EC50 [1, 2] | EC50 (L. major promastigote) | EC50 (T. cruzi) | EC50 (L. major amastigote) | EC50 [1, 3]
1 | CN1CCCN(S(=O)(=O)c2ccc(-c3ccc4c(Nc5ccc(OCc6cccc(F)c6)c(Cl)c5)ccnc4c3)cc2)CC1 [NEU-943, N-(3-Chloro-4-((3-fluorobenzyl)oxy)phenyl)-7-(4-((4-methyl-1,4-diazepan-1-yl)sulfonyl)phenyl)quinolin-4-amine] | 94 nM | 5000 nM | 87 nM | 400 nM | 730 nM | 880 nM | –
2 | O=S(=O)(c1ccc(-c2ccc3c(Nc4ccc(OCc5ccccc5)c(Cl)c4)cnnc3c2)cc1)N1CCOCC1 [NEU-1015, N-(4-(Benzyloxy)-3-chlorophenyl)-7-(4-(morpholinosulfonyl)phenyl)cinnolin-4-amine] | 150 nM | > 11000 nM | 1200 nM | > 15000 nM | 15000 nM | > 15000 nM | –
3 | Fc1cccc(COc2ccc(Nc3ccnc4ccc(-c5cccc(N6CCOCC6)c5)cc34)cc2Cl)c1 [NEU-959, N-(3-Chloro-4-((3-fluorobenzyl)oxy)phenyl)-6-(3-morpholinophenyl)quinolin-4-amine] | 35 nM | 10000 nM | 1000 nM | 900 nM | 6600 nM | 4000 nM | –
4 | CN1CCCN(S(=O)(=O)c2ccc(-c3ccc4c(Nc5ccc(OCc6cccc(F)c6)c(Cl)c5)nncc4c3)cc2)CC1 [NEU-1042, N-(3-Chloro-4-((3-fluorobenzyl)oxy)phenyl)-6-(4-((4-methyl-1,4-diazepan-1-yl)sulfonyl)phenyl)phthalazin-1-amine, Formic Acid] | 29 nM | 3400 nM | – | 410 nM | 1300 nM | 1100 nM | 510 nM
5 | Fc1cccc(COc2ccc(Nc3cnnc4cc(-c5cccc(N6CCOCC6)c5)ccc34)cc2Cl)c1 [NEU-1014, N-(3-Chloro-4-((3-fluorobenzyl)oxy)phenyl)-7-(3-morpholinophenyl)cinnolin-4-amine] | 200 nM | 11000 nM | 890 nM | 9800 nM | 45000 nM | > 15000 nM | –
6 | CN1CCN(S(=O)(=O)c2ccc(-c3ccc4c(Nc5ccc(OCc6cccc(F)c6)c(Cl)c5)nncc4c3)cc2)CC1 [NEU-1041, N-(3-Chloro-4-((3-fluorobenzyl)oxy)phenyl)-6-(4-((4-methylpiperazin-1-yl)sulfonyl)phenyl)phthalazin-1-amine, Formic Acid] | 45 nM | > 15000 nM | – | 1300 nM | 18000 nM | > 15000 nM | 1200 nM
7 | CN1CCN(S(=O)(=O)c2ccc(-c3ccc4nccc(Nc5ccc(OCc6cccc(F)c6)c(Cl)c5)c4c3)cc2)CC1 [NEU-960, N-(3-Chloro-4-((3-fluorobenzyl)oxy)phenyl)-6-(4-((4-methylpiperazin-1-yl)sulfonyl)phenyl)quinolin-4-amine] | 16000 nM | 6400 nM | 460 nM | 600 nM | 5300 nM | 2000 nM | –
8 | O=S(=O)(c1ccc(-c2ccc3c(Nc4ccc(OCc5ccccc5)c(Cl)c4)nccc3c2)cc1)N1CCOCC1 [NEU-948, N-(4-(Benzyloxy)-3-chlorophenyl)-6-(4-(morpholinosulfonyl)phenyl)isoquinolin-1-amine] | 3400 nM | > 5000 nM | 91 nM | > 15000 nM | > 50000 nM | > 3000 nM | –
9 | CN1CCCN(S(=O)(=O)c2ccc(-c3ccc4nncc(Nc5ccc(OCc6cccc(F)c6)c(Cl)c5)c4c3)cc2)CC1 [NEU-1013, N-(3-Chloro-4-((3-fluorobenzyl)oxy)phenyl)-6-(4-((4-methyl-1,4-diazepan-1-yl)sulfonyl)phenyl)cinnolin-4-amine] | 27 nM | 7300 nM | 580 nM | 4100 nM | 2200 nM | 1060 nM | –
10 | O=S(=O)(c1ccc(-c2ccc3nncc(Nc4ccc(OCc5ccccc5)c(Cl)c4)c3c2)cc1)N1CCOCC1 [NEU-1002, N-(4-(Benzyloxy)-3-chlorophenyl)-6-(4-(morpholinosulfonyl)phenyl)cinnolin-4-amine] | 820 nM | > 15000 nM | 1200 nM | > 15000 nM | > 50000 nM | > 15000 nM | –
11 | Fc1cccc(COc2ccc(Nc3cnnc4ccc(-c5cccc(N6CCOCC6)c5)cc34)cc2Cl)c1 [NEU-1012, N-(3-Chloro-4-((3-fluorobenzyl)oxy)phenyl)-6-(3-morpholinophenyl)cinnolin-4-amine] | 540 nM | > 15000 nM | 1100 nM | > 15000 nM | > 50000 nM | > 15000 nM | –
12 | CN1CCCN(S(=O)(=O)c2ccc(-c3ccc4cnnc(Nc5ccc(OCc6cccc(F)c6)c(Cl)c5)c4c3)cc2)CC1 [NEU-1044, N-(3-Chloro-4-((3-fluorobenzyl)oxy)phenyl)-7-(4-((4-methyl-1,4-diazepan-1-yl)sulfonyl)phenyl)phthalazin-1-amine, Formic Acid] | 94 nM | 14000 nM | – | > 15000 nM | 17000 nM | 5600 nM | 620 nM
13 | CN1CCCN(S(=O)(=O)c2ccc(-c3ccc4nccc(Nc5ccc(OCc6cccc(F)c6)c(Cl)c5)c4c3)cc2)CC1 [NEU-958, N-(3-Chloro-4-((3-fluorobenzyl)oxy)phenyl)-6-(4-((4-methyl-1,4-diazepan-1-yl)sulfonyl)phenyl)quinolin-4-amine] | 86 nM | 4300 nM | 140 nM | 400 nM | 930 nM | 2300 nM | –
14 | Fc1cccc(COc2ccc(Nc3ccnc4cc(-c5cccc(N6CCOCC6)c5)ccc34)cc2Cl)c1 [NEU-942, N-(3-Chloro-4-((3-fluorobenzyl)oxy)phenyl)-7-(3-morpholinophenyl)quinolin-4-amine] | 61 nM | > 5000 nM | 1200 nM | 1400 nM | 2700 nM | > 3000 nM | –
15 | CN1CCN(S(=O)(=O)c2ccc(-c3ccc4cnnc(Nc5ccc(OCc6cccc(F)c6)c(Cl)c5)c4c3)cc2)CC1 [NEU-1043, N-(3-Chloro-4-((3-fluorobenzyl)oxy)phenyl)-7-(4-((4-methylpiperazin-1-yl)sulfonyl)phenyl)phthalazin-1-amine, Formic Acid] | 130 nM | > 5000 nM | – | > 3200 nM | > 50000 nM | > 4000 nM | 2000 nM
16 | O=S(=O)(c1ccc(-c2ccc3cnnc(Nc4ccc(OCc5ccccc5)c(Cl)c4)c3c2)cc1)N1CCOCC1 [NEU-1036, N-(4-(Benzyloxy)-3-chlorophenyl)-7-(4-(morpholinosulfonyl)phenyl)phthalazin-1-amine] | 540 nM | > 5200 nM | 860 nM | > 3400 nM | > 50000 nM | > 4000 nM | –
17 | O=S(=O)(c1ccc(-c2ccc3c(Nc4ccc(OCc5ccccc5)c(Cl)c4)nncc3c2)cc1)N1CCOCC1 [NEU-1039, N-(4-(Benzyloxy)-3-chlorophenyl)-6-(4-(morpholinosulfonyl)phenyl)phthalazin-1-amine] | 110 nM | > 15000 nM | 990 nM | > 15000 nM | > 50000 nM | > 15000 nM | –

From US20150259331A1, “PROTOZOAN PARASITE GROWTH INHIBITORS” (Northeastern University, priority 2014, published 2015)
